Experimental data published in patent publication US10774080B2, “Pyrimidine compound as JAK kinase inhibitor” (THERAVANCE BIOPHARMA R&D IP, LLC, priority 2017, dated 2020).

Assay: Assay 8: human skin permeability assay (MedFlux-HT flow-through diffusion cell)
Format: in vitro ADME
Settings: 0.5% Ointment
Procedure: Assay 8: Human Skin Permeability Assay The objective of this experiment was to assess the percutaneous absorption of test compounds through human skin following topical application. The model uses excised human skin mounted in specially designed diffusion chambers (static or flow-through) that allow the skin to be maintained at a temperature and humidity that match real use conditions. The formulation was applied to the surface of the skin and the penetration of the drug is measured by monitoring its rate of appearance in the receptor solution flowing underneath the skin samples. This in vitro system allows carefully control of many of the potential variables involved in topical application, such as dosing volumes, humidity, temperature, drug stability, and skin thickness. […] This system was developed to specifically minimize the dosing area during in vitro experiments, thus allowing more dosing replications within the limited surface area of ex vivo human skin. The diffusion cells were placed in cell warming supports and heated using a circulating water bath in order to maintain the skin surface temperature at approx. 32° C. The cells were connected to multi-channel peristaltic pumps and maintained at a flow-rate of approximately 10 μL/min (600 μL/hr) for a continuous flow of receiver fluid directly under the skin. Following continuous sampling over 24 h, samples were assayed for test compound levels by LC-MS/MS. The test compound was detected in receiver fluid from […] following application of test ointment formulation (n=5). The ointment used is disclosed in Assay 7. The receiver fluid was PBS with 0.1% Brij.

With CCS(=O)(=O)N1[C@@H]2CCC[C@H]1C[C@H](N(C)c1nc(CO)c(F)c(Nc3cc(C)[nH]n3)n1)C2 [Compound (I), (2-(((1R,3s,5S)-9-(ethylsulfonyl)-9-azabicyclo[3.3.1]nonan-3-yl)(methyl)amino)-5-fluoro-6-((5-methyl-1H-pyrazol-3-yl)amino)pyrimidin-4-yl)methanol] the “permeability in human skin assay (in words)” value was “good permeability”, the “MedFlux Permeability, flux permeating through 1 cm2 of human skin (Mean)” value (n=5, receiver fluid PBS with 0.1% Brij) was 39.1 ng/cm2/sec and the “permeability in human skin assay (in words)” value (listed as compound (I)) was “adequate permeability”.
